# Laboratory results published in patent publication US6506730B1, “Nasal transmucosal delivery of peptide conjugated with biocompatible polymers” (priority 1999, dated 2003).
# Where no end group is shown, it is not given here.
# How the values were obtained:
# [1] = oral administration; cited from earlier work
# [2] = pH 5.5 to 6.0; cited from earlier work
# [3] = system: calcium concentration in plasma; assay: Comparison of calcium reduction effect of sCT and PEG-sCT after nasal administration to rats; format: in vivo, SD (Sprague Dawley) male rat; conditions: Time 960 (minutes after nasal administration); rat, n = 4; plasma calcium as ratio to primary value
# [4] = system: calcium concentration in plasma; assay: as above; format: in vivo, SD (Sprague Dawley) male rat; conditions: rat; for plasma calcium as % of pre-dose value: n = 4, plasma calcium as ratio to primary value
# Experimental: SD (Sprague Dawley) male rat (220-300 g, Charles River Japan, Atsugi, Japan) was put under anesthesia by administrating 45 mg/kg of peptobarbital into interperitoneal. Bronchus and esophagus were cannulated with PE-250 tube and thigh arteria with SP-45 tube. 20 ul of a placebo and experimental drugs were administered into the nasal cavity of rats with a Hamilton syringe. The placebo used physiological saline and the experimental drug used PEG5000-sCT, PEG12000-sCT, PEG2000-sCT and sCT prepared from the Example 2. Salmon calcitonin was administered at dose of 0.05 to 4.5 IU per rat, and rats were grouped into 4. 200 ul of blood was taken at before, 5, 10, 30, 60, 120, 240, 480 and […] after the placebo and the experimental drugs were administered, and immediately centrifuged to obtain 100 ul of plasma. The calcium concentration in plasma was measured using a calcium assay kit (Sigma, USA), and calcium remaining efficiency was calculated as the calcium concentration before administration was 100. The unit of the measured calcium concentration in plasma was mg/dl, and the remaining efficiency was calculated as the ratio (%) to the primary value.
# After the remaining coefficient was calculated according to each time, area-under the curve (AUC) was calculated about the average value of remaining coefficient at each time per experimental group. The reduction ratio of calcium concentration was calculated by the mathematical formula 1, and the results were represented in the table 1 (FIG. 6).
# ? ΓD(%)=(AUCCa-plac−AUCCa-sCT)/AUCCa-plac ? ┐100
# where, AUCCa-plac was AUC from placebo administration to 960 minutes, and AUCCa-sCT was AUC from calcitonin and experimental drugs administration to 960 minutes.
# [5] = nasal transmucosal administration
Substance,absorption half life [1],bioavailability [1],elimination half life [1],stability in acetate buffer [2],plasma calcium as % of pre-dose value [3],"plasma calcium as % of pre-dose value ([4]; Time 0 (before administration = 100), nasal cavity)",plasma calcium as % of pre-dose value ([4]; Time 5 (minutes after nasal administration)),plasma calcium as % of pre-dose value ([4]; Time 10 (minutes after nasal administration)),plasma calcium as % of pre-dose value ([4]; Time 30 (minutes after nasal administration)),plasma calcium as % of pre-dose value ([4]; Time 60 (minutes after nasal administration)),plasma calcium as % of pre-dose value ([4]; Time 120 (minutes after nasal administration)),plasma calcium as % of pre-dose value ([4]; Time 240 (minutes after nasal administration)),plasma calcium as % of pre-dose value ([4]; Time 480 (minutes after nasal administration)),"time after which calcium concentration restored at the original concentration [4, 5]","time for which the calcium concentration was decreased / reduction effect represented after the nasal transmucosal administration [4, 5]"
His-Asp-Tyr-Ala-Tyr-Asp-Lys-NH2 (HDYAYDK-NH2) [GHRP-6],15 min,0.3%,60 min,very stable,–,–,–,–,–,–,–,–,–,–,–
salmon calcitonin [sCT],–,–,–,–,101%,100%,98.9%,93.7%,95%,98.7%,97.8%,100.3%,101.6%,2 h,1 h
